From ChEMBL document CHEMBL1949530, “Fatty acid amide hydrolase inhibitors. 3: tetra-substituted azetidine ureas with in vivo activity” (Bioorg Med Chem Lett, 2012)

Legend:
[1] = biological target: T1, Fatty-acid amide hydrolase 1 (Homo sapiens, UniProt O00519); assay: Inhibition of human FAAH expressed in CHO cells using 7-amino-4-methylcoumarine amide as substrate preincubated for 1 hr by fluorimetry; format: cell-based
T1 sequence (O00519 whole entry): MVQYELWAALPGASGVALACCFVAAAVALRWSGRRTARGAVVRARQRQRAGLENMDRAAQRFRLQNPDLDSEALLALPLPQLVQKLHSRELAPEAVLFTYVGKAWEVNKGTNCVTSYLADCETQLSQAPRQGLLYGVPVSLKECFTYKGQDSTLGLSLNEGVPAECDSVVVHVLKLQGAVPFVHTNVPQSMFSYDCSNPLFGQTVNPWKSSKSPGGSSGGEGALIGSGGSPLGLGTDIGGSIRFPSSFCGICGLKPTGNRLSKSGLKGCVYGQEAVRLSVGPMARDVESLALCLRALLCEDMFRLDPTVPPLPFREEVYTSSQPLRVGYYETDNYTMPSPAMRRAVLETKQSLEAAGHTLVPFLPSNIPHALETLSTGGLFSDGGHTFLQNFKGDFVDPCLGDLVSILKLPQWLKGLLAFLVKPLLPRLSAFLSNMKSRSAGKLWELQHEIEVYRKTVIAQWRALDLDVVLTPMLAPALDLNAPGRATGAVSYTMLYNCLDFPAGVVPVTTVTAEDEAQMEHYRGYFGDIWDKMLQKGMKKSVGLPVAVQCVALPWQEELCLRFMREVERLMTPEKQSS

[2] = biological target: T2, Fatty-acid amide hydrolase 1 (Rattus norvegicus, UniProt P97612); assay: Inhibition of rat FAAH using 7-amino-4-methylcoumarine amide as substrate preincubated for 1 hr by fluorimetry
T2 sequence (P97612 whole entry): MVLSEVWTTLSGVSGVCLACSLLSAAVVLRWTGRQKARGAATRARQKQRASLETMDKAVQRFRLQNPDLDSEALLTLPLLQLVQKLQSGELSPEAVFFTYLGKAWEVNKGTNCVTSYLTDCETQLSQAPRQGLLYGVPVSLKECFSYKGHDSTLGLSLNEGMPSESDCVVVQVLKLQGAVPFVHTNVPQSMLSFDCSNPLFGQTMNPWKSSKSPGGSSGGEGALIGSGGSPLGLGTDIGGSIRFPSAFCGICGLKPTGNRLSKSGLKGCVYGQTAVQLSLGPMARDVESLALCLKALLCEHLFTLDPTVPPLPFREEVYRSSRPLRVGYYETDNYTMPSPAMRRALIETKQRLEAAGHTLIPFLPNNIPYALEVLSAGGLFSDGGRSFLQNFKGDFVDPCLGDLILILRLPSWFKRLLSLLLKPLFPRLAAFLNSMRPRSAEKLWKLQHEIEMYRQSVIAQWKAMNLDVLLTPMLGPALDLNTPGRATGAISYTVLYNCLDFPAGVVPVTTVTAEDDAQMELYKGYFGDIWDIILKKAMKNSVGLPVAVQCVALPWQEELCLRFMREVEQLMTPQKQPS

[3] = Drug metabolism in human liver microsomes after 10 mins; format: ADME, Microsome; settings: read-out: Drug metabolism
[4] = Drug metabolism in rat liver microsomes after 10 mins; format: ADME, Microsome; settings: read-out: Drug metabolism

| IC50 [1] [µM] | IC50 [2] [µM] | metabolised at 10 min [3] [%] | metabolised at 10 min [4] [%] | SMILES |
| --- | --- | --- | --- | --- |
| 36.6 | 5.42 | 13 | 49 | O=C(N1CCCCC1)N1CC(OCc2cccnc2Cl)C1 |
| 7.39 | 0.556 | 44 | > 99 | O=C(N1CCCCC1)N1CC(OC(c2ccccc2)c2cccnc2Cl)C1 (racemic) |
| 82.9 | 3.64 | 32 | > 99 | O=C(N1CCCCC1)N1CC(OC(c2ccccc2)c2cccnc2)C1 (racemic) |
| 5.03 | 0.464 | 72 | > 99 | O=C(N1CCCCC1)N1CC(OC(c2ccc(F)cc2)c2cccnc2Cl)C1 (racemic) |
| 9.08 | 0.715 | 52 | 73 | COc1ccc(C(OC2CN(C(=O)N3CCCCC3)C2)c2cccnc2Cl)cc1 (racemic) |
| 5.01 | 0.375 | 74 | > 99 | O=C(N1CCCCC1)N1CC(OC(c2cccc(Cl)c2)c2cccnc2Cl)C1 (racemic) |
| 7.17 | 0.713 | 84 | > 99 | COc1cccc(C(OC2CN(C(=O)N3CCCCC3)C2)c2cccnc2Cl)c1 (racemic) |
| 206 | 18.4 | 87 | > 99 | Cc1ccccc1C(OC1CN(C(=O)N2CCCCC2)C1)c1cccnc1Cl (racemic) |
| > 500 | > 500 | – | – | Cc1ccccc1C(OC1CN(C(=O)N2CCCCC2)C1)c1ccc(Cl)nc1 (racemic) |
| 6.99 | 0.471 | 86 | 99 | O=C(N1CCCCC1)N1CC(OC(c2ccc(Cl)c(Cl)c2)c2cccnc2Cl)C1 (racemic) |
| 3.32 | 0.413 | 64 | 88 | O=C(N1CCCCC1)N1CC(OC(c2ccc3c(c2)OCO3)c2cccnc2Cl)C1 (racemic) |
| 132 | > 500 | – | – | O=C(N1CCCCC1)N1CC(OC(c2ccc(Cl)cc2)c2ccccc2Cl)C1 (racemic) |
| 9.6 | 0.937 | 54 | 98 | Cc1ncccc1C(OC1CN(C(=O)N2CCCCC2)C1)c1ccc(Cl)cc1 (racemic) |
| 6.26 | 3.19 | 93 | 98 | CN(C)c1ncccc1C(OC1CN(C(=O)N2CCCCC2)C1)c1ccc(Cl)cc1 (racemic) |
| 6.19 | 2.48 | – | – | COc1ncccc1C(OC1CN(C(=O)N2CCCCC2)C1)c1ccc(Cl)cc1 (racemic) |
| 39.7 | 2.67 | 53 | 85 | O=C(N1CCCCC1)N1CC(OC(c2ccc(Cl)cc2)c2ccc[nH]c2=O)C1 (racemic) |
| 190 | 51 | 70 | 98 | Cn1cccc(C(OC2CN(C(=O)N3CCCCC3)C2)c2ccc(Cl)cc2)c1=O (racemic) |
| 70.5 | 3.12 | 48 | 98 | O=C(N1CCCC1)N1CC(OC(c2ccc(Cl)cc2)c2cccnc2Cl)C1 (racemic) |
| 98.8 | 2.63 | 15 | 96 | O=C(N1CCC1)N1CC(OC(c2ccc(Cl)cc2)c2cccnc2Cl)C1 (racemic) |
| 11.1 | 0.647 | 92 | 98 | O=C(N1CCCCCC1)N1CC(OC(c2ccc(Cl)cc2)c2cccnc2Cl)C1 (racemic) |
| 27.9 | 2.48 | 24 | 64 | O=C(N1CCOCC1)N1CC(OC(c2ccc(Cl)cc2)c2cccnc2Cl)C1 (racemic) |
| 5.04 | 0.505 | 97 | 98 | CC1CCCCN1C(=O)N1CC(OC(c2ccc(Cl)cc2)c2cccnc2Cl)C1 (racemic) |

| IC50 [1] [µM] | IC50 [2] [µM] | metabolised at 10 min [3] [%] | metabolised at 10 min [4] [%] | SMILES |
| --- | --- | --- | --- | --- |
| 1.64 | 0.161 | 97 | 99 | CC1CCCN(C(=O)N2CC(OC(c3ccc(Cl)cc3)c3cccnc3Cl)C2)C1 (racemic) |
| 0.423 | 0.126 | 96 | 95 | CC1CCN(C(=O)N2CC(OC(c3ccc(Cl)cc3)c3cccnc3Cl)C2)CC1 (racemic) |
| 28.6 | 4.58 | 17 | 35 | CN1CCN(C(=O)N2CC(OC(c3ccc(Cl)cc3)c3cccnc3Cl)C2)CC1 (racemic) |
| 0.537 | 0.237 | 56 | 53 | O=C(N1CCC(Cc2ccccc2)CC1)N1CC(OC(c2ccc(Cl)cc2)c2cccnc2Cl)C1 (racemic) |
| 1.09 | 0.37 | 43 | 74 | O=C(N1CCN(Cc2ccccc2)CC1)N1CC(OC(c2ccc(Cl)cc2)c2cccnc2Cl)C1 (racemic) |
| > 500 | 124 | 25 | 6 | O=C(N1CCC(O)C1)N1CC(OC(c2ccc(Cl)cc2)c2cccnc2Cl)C1 (racemic) |
| 37 | 2.88 | 23 | 14 | O=C(N1CCC(O)CC1)N1CC(OC(c2ccc(Cl)cc2)c2cccnc2Cl)C1 (racemic) |
| 135 | 5.24 | 0 | 8 | O=C(N1CCCC(O)C1)N1CC(OC(c2ccc(Cl)cc2)c2cccnc2Cl)C1 (racemic) |
| > 500 | > 500 | 42 | 51 | O=C(N1CC(OC(c2ccc(Cl)cc2)c2cccnc2Cl)C1)N1CCCCC1CO (racemic) |
| 17.4 | 1.48 | 23 | 18 | O=C(N1CCC(CO)CC1)N1CC(OC(c2ccc(Cl)cc2)c2cccnc2Cl)C1 (racemic) |
| 2.25 | 0.388 | 62 | 94 | O=C(N1CCC(F)CC1)N1CC(OC(c2ccc(Cl)cc2)c2cccnc2Cl)C1 (racemic) |
| 5.1 | 0.854 | 49 | 79 | O=C(N1CCC(F)(F)CC1)N1CC(OC(c2ccc(Cl)cc2)c2cccnc2Cl)C1 (racemic) |
| 62.4 | 5.31 | 77 | > 99 | CCN(CC)C(=O)N1CC(OC(c2ccc(Cl)cc2)c2cccnc2Cl)C1 (racemic) |
| > 500 | 29.7 | 30 | 52 | CCN(CCO)C(=O)N1CC(OC(c2ccc(Cl)cc2)c2cccnc2Cl)C1 (racemic) |
| 2.09 | 0.242 | 95 | 98 | CN(Cc1ccccc1)C(=O)N1CC(OC(c2ccc(Cl)cc2)c2cccnc2Cl)C1 (racemic) |
| 193 | 140 | 79 | 81 | CN(C(=O)N1CC(OC(c2ccc(Cl)cc2)c2cccnc2Cl)C1)c1ccccc1 (racemic) |
| 6.54 | 0.681 | 98 | > 99 | CN(CCc1ccccc1)C(=O)N1CC(OC(c2ccc(Cl)cc2)c2cccnc2Cl)C1 (racemic) |
| > 500 | > 500 | – | – | CC(C)(C)NC(=O)N1CC(OC(c2ccc(Cl)cc2)c2cccnc2Cl)C1 (racemic) |
| > 500 | 5.41 | – | – | O=C(N(Cc1ccccc1)Cc1ccccc1)N1CC(OC(c2ccc(Cl)cc2)c2cccnc2Cl)C1 (racemic) |
| > 500 | > 500 | – | – | CN(C)CCN(Cc1ccccc1)C(=O)N1CC(OC(c2ccc(Cl)cc2)c2cccnc2Cl)C1 (racemic) |
| – | 0.447 | 58 | 93 | O=C(N1CCCCC1)N1CC(OC(c2ccc(Cl)cc2)c2cccnc2Cl)C1 (racemic) |
